Assay results taken from patent publication US6936585B2, “Corticotropin releasing factor 2 receptor agonists” (priority 2002, dated 2005).
pEC50: −log10 of the molar value. Ends that are not written are not given here. Peptide text beside a SMILES is read from it.

Tests used:
CRF2R = biological target: T1, CRF2R (Homo sapiens, UniProt Q13324); assay: CRF2R agonist activation (EC50 / Emax), called comparative CRF binding; type: cell-based; settings: for pEC50: read-out: CRF2R EC50; for Emax: read-out: CRF2R Emax
T1 sequence (Q13324 1-411): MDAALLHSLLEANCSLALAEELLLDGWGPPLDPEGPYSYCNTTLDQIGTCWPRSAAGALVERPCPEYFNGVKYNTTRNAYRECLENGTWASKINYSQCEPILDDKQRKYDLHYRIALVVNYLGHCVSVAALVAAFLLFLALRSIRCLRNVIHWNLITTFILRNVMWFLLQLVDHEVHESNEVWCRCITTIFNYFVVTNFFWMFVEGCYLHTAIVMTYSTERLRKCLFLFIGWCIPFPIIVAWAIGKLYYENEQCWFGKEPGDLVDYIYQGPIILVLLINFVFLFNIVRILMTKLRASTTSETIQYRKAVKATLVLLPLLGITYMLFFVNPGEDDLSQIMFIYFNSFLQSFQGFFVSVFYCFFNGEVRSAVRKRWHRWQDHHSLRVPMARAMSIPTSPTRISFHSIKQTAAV
Excerpt: (§1) The pharmacological activity and selectivity of the peptides of present invention can be determined using published test procedures. See, e.g, U.S. patent application Ser. No. 09/799,978 (now issued U.S. Pat. No. 6,670,140). Because CRF2R and CRF1R are homologous proteins, it is expected that a certain proportion of agonists for CRF2R will also function as agonists of CRF1R. As discussed above, activation of CRF1R induces activation of the HPA axis since increased corticosteroid production leads to skeletal muscle atrophy. In most cases in which an increase in muscle mass or function is desired, it is not desirable to activate the HPA axis.
(§2) Cell-based assays include the steps of contacting cells which express CRF1R or CRF2R with a peptide of the present invention or control and measuring activation of the CRFR by measuring the expression or activity of components of the CRFR signal transduction pathways.
(§3) For example, after contact with a peptide of the present invention, lysates of the cells can be prepared and assayed for induction of cAMP. cAMP is induced in response to Gαs activation. Because Gαs is activated by receptors other than CRFR and because a test peptide may be exerting its effect through CRFRs or by another mechanism, two control comparisons are relevant for determining whether the peptide increases levels of cAMP via activation of a CRFR. One control compares the cAMP level of cells contacted with the peptide and the cAMP level of cells contacted with a control compound (i.e., the vehicle in which the peptide is dissolved).
(§4) In one example, cAMP induction is measured with the use of DNA constructs containing the cAMP responsive element linked to any of a variety of reporter genes can be introduced into cells expressing CRFRs. Such reporter genes include, but are not limited to, chloramphenicol acetyltransferase (CAT), luciferase, glucuronide synthetase, growth hormone, fluorescent proteins (e.g., Green Fluorescent Protein), or alkaline phosphatase. Following exposure of the cells to the peptide, the level of reporter gene expression can be quantitated to determine the peptide's ability to increase cAMP levels and thus determine the peptide's ability to activate the CRFR.
(§5) In addition to using cells expressing full length CRFRs, cells can be engineered which express CRFRs containing the ligand binding domain of the receptor coupled to, or physically modified to contain, reporter elements or to interact with signaling proteins. For example, a wild type CRFR or CRFR fragment can be fused to a G-protein resulting in activation of the fused G-protein upon agonist binding to the CRFR portion of the fusion protein. […] In addition, alternative pathways for induction of the CRE reporter could be eliminated to reduce basal levels.

CRF1R = biological target: T2, CRF1R (Homo sapiens, UniProt P34998); assay: CRF1R agonist activation (EC50 / Emax), called comparative CRF binding; type: cell-based; settings: for pEC50: read-out: CRF1R EC50; for Emax: read-out: CRF1R Emax
T2 sequence (P34998 24-415): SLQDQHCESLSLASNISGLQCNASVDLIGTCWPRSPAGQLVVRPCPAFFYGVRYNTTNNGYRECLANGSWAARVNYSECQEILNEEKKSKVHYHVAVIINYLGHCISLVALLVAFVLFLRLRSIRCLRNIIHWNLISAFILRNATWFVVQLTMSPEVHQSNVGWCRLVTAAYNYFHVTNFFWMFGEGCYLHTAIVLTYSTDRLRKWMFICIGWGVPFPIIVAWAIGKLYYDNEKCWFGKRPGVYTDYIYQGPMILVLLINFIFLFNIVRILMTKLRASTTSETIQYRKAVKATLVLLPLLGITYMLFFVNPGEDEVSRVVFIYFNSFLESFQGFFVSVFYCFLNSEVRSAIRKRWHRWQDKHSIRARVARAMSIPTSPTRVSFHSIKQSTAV
Excerpt: as §1, §2, §3, §4, §5

CC[C@H](C)[C@H](NC(=O)[C@H](CCCNC(=N)N)NC(=O)[C@H](C)NC(=O)[C@H](CC(N)=O)NC(=O)[C@H](CCC(N)=O)NC(=O)[C@H](CCC(=O)O)NC(=O)[C@H](C)NC(=O)[C@H](CCCNC(=N)N)NC(=O)[C@H](CCC(=O)O)NC(=O)[C@H](CCCNC(=N)N)NC(=O)[C@H](CCC(N)=O)NC(=O)[C@H](CO)NC(=O)[C@H](CCC(N)=O)NC(=O)[C@@H](NC(=O)[C@H](CCCCN)NC(=O)[C@H](CCC(=O)O)NC(=O)[C@H](CC(C)C)NC(=O)[C@H](CCC(=O)O)NC(=O)[C@H](CC(C)C)NC(=O)[C@H](CC(C)C)NC(=O)[C@@H](NC(=O)[C@H](CCCNC(=N)N)NC(=O)[C@H](CC(C)C)NC(=O)[C@H](CC(C)C)NC(=O)[C@@H](NC(=O)[C@H](CC(C)C)NC(=O)[C@@H]1CCCN1C(=O)[C@H](CC(C)C)NC(=O)[C@H](CC(=O)O)NC(=O)[C@@H](NC(=O)[C@H](CO)NC(=O)[C@H](CC(C)C)NC(=O)[C@H](CO)NC(=O)[C@@H]1CCCN1C(=O)[C@H](CC(N)=O)NC(=O)[C@@H](N)CC(=O)O)[C@@H](C)CC)[C@@H](C)CC)[C@@H](C)O)[C@@H](C)O)C(=O)N[C@@H](Cc1ccccc1)C(=O)N[C@@H](CC(=O)O)C(=O)N[C@@H](CCCNC(=N)N)C(=O)N[C@H](C(N)=O)C(C)C [compound 337] (H-DNPSLSIDLPLILLRTLLELEKTQSQRERAEQNARIFDRV-NH2; N-terminus assumed)
pEC50 (CRF2R): 7.62 | Emax (CRF2R): 86.7% | pEC50 (CRF1R): ≤ 6.00 | Emax (CRF1R): 36.5%

NDDPPISIDLPLILLRNMIEMARIENEREQAGLNAKYLAEV-NH2 [compound 269]
Emax (CRF2R): 77.3% | Emax (CRF1R): 44.3%

SQEPPISLDLPFQLLREVLEMTKADQLAQQAHSNRKLLDIA-NH2 [compound 91]
Emax (CRF2R): 7.1% | Emax (CRF1R): 4%

CC[C@H](C)[C@H](N)C(=O)N[C@H](C(=O)N[C@@H](CC(C)C)C(=O)N[C@@H](CO)C(=O)N[C@@H](CC(C)C)C(=O)N[C@@H](CC(=O)O)C(=O)N[C@H](C(=O)N1CCC[C@H]1C(=O)N[C@H](C(=O)NCC(=O)N[C@@H](CC(C)C)C(=O)N[C@@H](CC(C)C)C(=O)N[C@@H](CCC(N)=O)C(=O)N[C@H](C(=O)N[C@@H](CC(C)C)C(=O)N[C@@H](CC(C)C)C(=O)N[C@@H](CCC(=O)O)C(=O)N[C@@H](CCC(N)=O)C(=O)N[C@@H](CCCNC(=N)N)C(=O)N[C@@H](C)C(=O)N[C@@H](CCCNC(=N)N)C(=O)N[C@@H](C)C(=O)N[C@@H](C)C(=O)N[C@@H](CCCNC(=N)N)C(=O)N[C@@H](CCC(=O)O)C(=O)N[C@@H](CCC(N)=O)C(=O)N[C@@H](C)C(=O)N[C@H](C(=O)N[C@H](C(=O)N[C@@H](CC(N)=O)C(=O)N[C@@H](C)C(=O)N[C@@H](CCCNC(=N)N)C(=O)N[C@H](C(=O)N[C@@H](CC(C)C)C(=O)N[C@@H](C)C(=O)N[C@@H](CCCNC(=N)N)C(=O)N[C@H](C(N)=O)C(C)C)[C@@H](C)CC)[C@@H](C)O)[C@@H](C)O)[C@@H](C)CC)[C@@H](C)CC)C(C)C)C(C)C [compound 137] (H-IVLSLDVPIGLLQILLEQRARAAREQATTNARILARV-NH2; N-terminus assumed)
Emax (CRF2R): 100% | Emax (CRF1R): 4%

SQEPPISLDLPIQLLREVLEMTKADQLAQQAHSNRKLLDIA-NH2 [compound 100]
Emax (CRF2R): 9.85% | Emax (CRF1R): 6.25%

NDDPPISIDLPFYLLRNMIEMARIENEREQAGLNAKYLAEV-NH2 [compound 261]
Emax (CRF2R): 95.3% | Emax (CRF1R): 100%

CC[C@H](C)[C@H](NC(=O)[C@H](C)NC(=O)[C@H](CC(N)=O)NC(=O)[C@H](CCC(N)=O)NC(=O)[C@H](CCC(=O)O)NC(=O)[C@H](C)NC(=O)[C@H](CCCNC(=N)N)NC(=O)[C@H](CCC(=O)O)NC(=O)[C@H](CCCNC(=N)N)NC(=O)[C@H](CCC(N)=O)NC(=O)[C@H](CO)NC(=O)[C@H](CCC(N)=O)NC(=O)[C@@H](NC(=O)[C@H](CCCNC(=N)N)NC(=O)[C@H](C)NC(=O)[C@H](CC(C)C)NC(=O)[C@H](CCC(=O)O)NC(=O)[C@H](CC(C)C)NC(=O)[C@H](CC(C)C)NC(=O)[C@@H](NC(=O)[C@H](CCCNC(=N)N)NC(=O)[C@H](CC(C)C)NC(=O)[C@H](CC(C)C)NC(=O)[C@@H](NC(=O)[C@H](CC(C)C)NC(=O)[C@@H]1CCCN1C(=O)[C@H](CC(C)C)NC(=O)[C@H](CC(=O)O)NC(=O)[C@@H](NC(=O)[C@H](CO)NC(=O)[C@H](CC(C)C)NC(=O)[C@H](CO)NC(=O)[C@@H]1CCCN1C(=O)[C@H](CC(N)=O)NC(=O)[C@@H](N)CC(=O)O)[C@@H](C)CC)[C@@H](C)CC)[C@@H](C)O)[C@@H](C)O)C(=O)N[C@H](C(=O)N[C@@H](Cc1ccccc1)C(=O)N[C@@H](C)C(=O)N[C@@H](CO)C(=O)N[C@H](C(N)=O)C(C)C)[C@@H](C)CC [compound 175] (H-DNPSLSIDLPLILLRTLLELARTQSQRERAEQNAIIFASV-NH2; N-terminus assumed)
pEC50 (CRF2R): 8.27 | Emax (CRF2R): 92.2% | pEC50 (CRF1R): ≤ 6.00 | Emax (CRF1R): 34.8%

CC[C@H](C)[C@H](N)C(=O)N[C@H](C(=O)N[C@@H](CC(C)C)C(=O)N[C@@H](CO)C(=O)N[C@@H](CC(C)C)C(=O)N[C@@H](CC(=O)O)C(=O)N[C@H](C(=O)N1CCC[C@H]1C(=O)N[C@H](C(=O)NCC(=O)N[C@@H](CC(C)C)C(=O)N[C@@H](CC(C)C)C(=O)N[C@@H](CCC(N)=O)C(=O)N[C@H](C(=O)N[C@@H](CC(C)C)C(=O)N[C@@H](CC(C)C)C(=O)N[C@@H](CCC(=O)O)C(=O)N[C@@H](CCC(N)=O)C(=O)N[C@@H](C)C(=O)N[C@@H](CCCNC(=N)N)C(=O)N[C@@H](C)C(=O)N[C@@H](CCCNC(=N)N)C(=O)N[C@@H](C)C(=O)N[C@@H](C)C(=O)N[C@@H](CCCNC(=N)N)C(=O)N[C@@H](CCC(=O)O)C(=O)N[C@@H](CCC(N)=O)C(=O)N[C@@H](C)C(=O)N[C@H](C(=O)N[C@@H](CO)C(=O)N[C@@H](CC(N)=O)C(=O)N[C@@H](CCCNC(=N)N)C(=O)N[C@@H](CCCCN)C(=O)N[C@@H](CC(C)C)C(=O)N[C@@H](CCSC)C(=O)N[C@@H](CCC(=O)O)C(=O)N[C@H](C(=O)N[C@H](C(N)=O)[C@@H](C)CC)[C@@H](C)CC)[C@@H](C)O)[C@@H](C)CC)[C@@H](C)CC)C(C)C)C(C)C [compound 163] (H-IVLSLDVPIGLLQILLEQARARAAREQATSNRKLMEII-NH2; N-terminus assumed)
pEC50 (CRF2R): 8.35 | Emax (CRF2R): 96% | pEC50 (CRF1R): < 7.00 | Emax (CRF1R): 13%
